Results from the supplement of paper PMC10307832.

Assays:
Assay in all cases: relative viability (nuclei count vs DMSO), 5 days (fraction); higher = more cells survive
[1] = compound: CNC(=O)c1cc(Oc2ccc(NC(=O)Nc3ccc(Cl)c(C(F)(F)F)c3)cc2)ccn1 [Sorafenib] + N=C(N)NC(=N)NCCc1ccccc1 [Phenformin] (partner 250 µM)
Outline: (§1)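 Nuclei were stained with Hoechst during a one-step fixation (final 0.05% Triton X-100, 1% formaldehyde, 1 ug/ml Hoechst) carried out 5 days after dosing, then counted on 4× images. The cells, lung cancer lines in 1536-well plates, had been dosed by pin tool the day after seeding with one drug alone or a fixed anchor-drug dose plus five library-drug doses (not always all listed) in √10 steps. Relative viability is the nuclei count in treated wells divided by that in vehicle wells, and each value is the median of duplicate plates.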

[2] = compound: CNC(=O)c1cc(Oc2ccc(NC(=O)Nc3ccc(Cl)c(C(F)(F)F)c3)cc2)ccn1 [Sorafenib] + COc1cccc2cc(-c3nc([C@H]4CC[C@H](C(=O)O)CC4)n4ncnc(N)c34)[nH]c12 [OSI-027] (partner 0.5 µM)
Outline: as §1

[3] = compound: CNC(=O)c1cc(Oc2ccc(NC(=O)Nc3ccc(Cl)c(C(F)(F)F)c3)cc2)ccn1 [Sorafenib] + CCNC(=O)c1noc(-c2cc(C(C)C)c(O)cc2O)c1-c1ccc(CN2CCOCC2)cc1 [Luminespib] (partner 0.01 µM)
Outline: as §1

[4] = compound: CNC(=O)c1cc(Oc2ccc(NC(=O)Nc3ccc(Cl)c(C(F)(F)F)c3)cc2)ccn1 [Sorafenib] + CS(=O)(=O)N1CCN(Cc2cc3nc(-c4cccc5[nH]ncc45)nc(N4CCOCC4)c3s2)CC1 [Pictilisib] (partner 1 µM)
Outline: as §1

[5] = compound: CNC(=O)c1cc(Oc2ccc(NC(=O)Nc3ccc(Cl)c(C(F)(F)F)c3)cc2)ccn1 [Sorafenib] + CC(=O)c1c(C)c2cnc(Nc3ccc(N4CCNCC4)cn3)nc2n(C2CCCC2)c1=O [Palbociclib] (partner 0.5 µM)
Outline: as §1

Row | Cell Line | relative viability ([1]; first compound 0.08 µM) | relative viability ([1]; first compound 0.253 µM) | relative viability ([1]; first compound 2.53 µM) | relative viability ([1]; first compound 8 µM) | relative viability ([2]; first compound 0.253 µM) | relative viability ([2]; first compound 2.53 µM) | relative viability ([3]; first compound 0.08 µM) | relative viability ([3]; first compound 0.253 µM) | relative viability ([3]; first compound 2.53 µM) | relative viability ([3]; first compound 8 µM) | relative viability ([4]; first compound 0.08 µM) | relative viability ([4]; first compound 0.253 µM) | relative viability ([4]; first compound 2.53 µM) | relative viability ([4]; first compound 8 µM) | relative viability ([5]; first compound 0.08 µM) | relative viability ([5]; first compound 0.253 µM) | relative viability ([5]; first compound 2.53 µM) | relative viability ([5]; first compound 8 µM) | relative viability ([2]; first compound 0.08 µM) | relative viability ([2]; first compound 8 µM)
1 | NCI-H358 | 0.442 | 0.392 | 0.468 | 0.146 | 0.75 | 0.839 | 0.242 | 0.285 | 0.295 | 0.239 | 0.364 | 0.393 | 0.469 | 0.184 | 0.137 | 0.127 | 0.182 | 0.128 | – | –
2 | NCI-H1395 | 0.51 | 0.407 | 0.453 | 0.392 | 0.562 | 0.72 | 0.742 | 0.703 | 0.576 | 0.53 | 0.603 | 0.636 | 0.642 | 0.39 | 0.696 | – | 0.613 | 0.644 | 0.691 | 0.459
3 | EPLC-272H | 0.402 | 0.264 | 0.294 | 0.315 | 0.296 | 0.273 | 0.26 | 0.303 | 0.263 | 0.335 | 0.393 | 0.286 | 0.45 | 0.299 | 0.332 | 0.338 | 0.486 | 0.295 | 0.314 | 0.269
4 | NCI-H1975 | 0.462 | 0.403 | 0.429 | 0.341 | 0.55 | 0.695 | 0.426 | 0.201 | 0.24 | 0.153 | 0.312 | 0.308 | 0.376 | 0.286 | 0.712 | 0.49 | 0.656 | 0.311 | 0.812 | 0.375
5 | LK-2 | 0.562 | 0.274 | 0.38 | 0.0899 | 0.193 | 0.19 | 0.228 | 0.197 | 0.175 | 0.172 | 0.588 | – | 0.722 | 0.374 | 0.703 | 0.588 | 0.528 | 0.542 | 0.201 | 0.139
6 | NCI-H2228 | 0.362 | 0.285 | 0.259 | 0.133 | 0.607 | – | 0.181 | 0.178 | 0.154 | 0.105 | 0.384 | 0.375 | 0.337 | 0.529 | 0.692 | 0.883 | 0.589 | 0.517 | 0.626 | 0.365
7 | RERF-LC-KJ | 0.437 | 0.435 | 0.463 | 0.394 | 0.502 | 0.649 | 1.2 | 1.26 | 1.24 | 0.404 | 0.604 | 0.578 | 0.612 | 0.438 | 1.05 | 0.961 | 1.03 | 0.759 | 0.601 | 0.397
8 | LXF-289 | 0.553 | 0.513 | 0.541 | 0.476 | 0.814 | – | 0.706 | 0.648 | 0.634 | 0.588 | 0.834 | 0.727 | 0.828 | 0.779 | 0.612 | 0.618 | 0.74 | 0.616 | 0.787 | 0.764
9 | NCI-H2405 | 0.421 | 0.334 | 0.405 | 0.259 | 0.662 | 0.731 | 0.868 | 0.705 | 0.79 | 0.446 | 0.539 | 0.39 | 0.363 | 0.293 | 0.553 | 0.517 | 0.561 | 0.477 | 0.679 | 0.546
10 | NCI-H460 | 0.528 | 0.495 | 0.462 | 0.046 | 0.596 | 0.459 | 0.0329 | 0.0278 | 0.0236 | 0.0147 | – | 0.442 | 0.51 | 0.3 | 0.176 | 0.118 | 0.136 | 0.137 | 0.761 | 0.0191
11 | NCI-H1915 | 0.357 | 0.33 | 0.359 | 0.341 | 0.558 | 0.682 | 0.848 | 0.678 | – | 0.751 | 0.875 | 0.911 | 0.958 | 0.866 | 0.54 | 0.574 | 0.581 | 0.413 | 0.659 | 0.512
12 | LCLC-103H | 0.401 | 0.309 | 0.336 | 0.344 | 0.425 | 0.528 | 0.964 | 0.939 | 1.03 | 0.837 | 0.689 | 0.581 | 0.698 | 0.758 | 0.415 | 0.461 | 0.479 | 0.52 | 0.556 | 0.469
13 | NCI-H1666 | 0.562 | 0.546 | 0.544 | 0.452 | 0.781 | 0.798 | – | 1.03 | 0.951 | 0.872 | 0.497 | 0.407 | 0.451 | 0.331 | 0.602 | 0.566 | 0.634 | 0.717 | 0.912 | 0.692
14 | LU99A | 0.978 | 0.864 | 0.748 | 0.408 | 0.27 | 0.299 | 0.359 | 0.25 | 0.204 | 0.318 | 0.308 | 0.3 | 0.347 | 0.325 | 0.431 | 0.445 | 0.39 | 0.393 | 0.299 | 0.272
15 | NCI-H2009 | 0.47 | 0.365 | 0.433 | 0.157 | 0.355 | 0.601 | 1.03 | 0.868 | 0.915 | 0.476 | 0.866 | 0.621 | 0.752 | 0.265 | 0.275 | 0.115 | 0.21 | 0.198 | 0.629 | 0.303
16 | NCI-H1755 | 0.569 | – | 0.624 | 0.534 | 0.639 | 0.746 | 0.67 | 0.399 | 0.371 | 0.404 | 0.466 | 0.422 | 0.417 | 0.263 | 0.482 | – | 0.461 | – | 0.718 | 0.666
